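48-hour exposure; five concentrations; linearly interpolated endpoints. The concentration for 50% growth inhibition is given as GI50.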 Active and inactive are the calls of the source. Cut-off read from the data, not from the text of the source: active = GI50 up to about 1.1 µM and inactive = higher.
Experiments:
Assay in all cases: inhibition of tumour cell growth, NCI panel, 48 h
U-251 = test system: U-251
A498 = test system: A498
Hs-578T = test system: Hs-578T
NCI-H522 = test system: NCI-H522
NCI-H460 = test system: NCI-H460
BT-549 = test system: BT-549
HOP-92 = test system: HOP-92
UO-31 = test system: UO-31
HCT-15 = test system: HCT-15
IGROV-1 = test system: IGROV-1
NCI-H23 = test system: NCI-H23
SN12C = test system: SN12C
EKVX = test system: EKVX
KM12 = test system: KM12
OVCAR-5 = test system: OVCAR-5
M14 = test system: M14
HCC 2998 = test system: HCC 2998
SK-MEL-28 = test system: SK-MEL-28
DU-145 = test system: DU-145
Malme-3M = test system: Malme-3M

Compound | GI50 (U-251) | GI50 (A498) | GI50 (Hs-578T) | GI50 (NCI-H522) | GI50 (NCI-H460) | GI50 (BT-549) | GI50 (HOP-92) | GI50 (UO-31) | GI50 (HCT-15) | GI50 (IGROV-1) | GI50 (NCI-H23) | GI50 (SN12C) | GI50 (EKVX) | GI50 (KM12) | GI50 (OVCAR-5) | GI50 (M14) | GI50 (HCC 2998) | GI50 (SK-MEL-28) | GI50 (DU-145) | GI50 (Malme-3M)
COC(=O)C1Cc2c([nH]c3ccccc23)C(c2cccc(O)c2)N1 (stereo not given) | 35 µM (inactive) | 42.9 µM (inactive) | 37.4 µM (inactive) | 33.6 µM (inactive) | 26.3 µM (inactive) | 22.3 µM (inactive) | 28.4 µM (inactive) | 80 µM (inactive) | 34 µM | 37.8 µM (inactive) | 29.8 µM (inactive) | 40.9 µM (inactive) | 40.3 µM (inactive) | 32.1 µM (inactive) | 28.8 µM (inactive) | 21.3 µM (inactive) | 25.6 µM (inactive) | 28.7 µM (inactive) | 23.4 µM (inactive) | 
Cn1nc(S(N)(=O)=O)s/c1=N/C(N)=S | > 100 µM (inactive) | > 100 µM (inactive) | > 100 µM (inactive) | > 100 µM (inactive) | > 100 µM (inactive) | > 100 µM (inactive) | > 100 µM (inactive) | > 100 µM (inactive) | > 100 µM |  | > 100 µM (inactive) | > 100 µM (inactive) | > 100 µM (inactive) | > 100 µM (inactive) | > 100 µM (inactive) | > 100 µM (inactive) | > 100 µM (inactive) | > 100 µM (inactive) | > 100 µM (inactive) | > 100 µM (inactive)
O=C(N/N=C(COc1ccc(Cl)cc1)\N=C\c1ccncc1)c1ccncc1 | > 100 µM (inactive) | 45.9 µM (inactive) | > 100 µM (inactive) | 84.5 µM (inactive) | > 100 µM (inactive) | > 100 µM (inactive) | 43.3 µM (inactive) |  | > 100 µM | > 100 µM (inactive) | > 100 µM (inactive) | > 100 µM (inactive) | > 100 µM (inactive) | > 100 µM (inactive) | > 100 µM (inactive) | > 100 µM (inactive) | > 100 µM (inactive) | > 100 µM (inactive) | > 100 µM (inactive) | > 100 µM (inactive)
Nc1nncc2[nH]cnc12 | > 64.3 µM (inactive) | > 62.2 µM (inactive) | > 78.7 µM (inactive) | > 100 µM (inactive) | 90.6 µM (inactive) | 26.9 µM (inactive) | > 100 µM (inactive) | > 100 µM (inactive) | 44.4 µM | 57.8 µM (inactive) |  | > 79.4 µM (inactive) | 52.1 µM (inactive) | 44.1 µM (inactive) | 49.3 µM (inactive) | 35.2 µM (inactive) | > 100 µM (inactive) | > 100 µM (inactive) | > 62.5 µM (inactive) | 
CCN(CC)c1nc(NC2CCCCC2)c2nc(N(CC)CC)nc(NC3CCCCC3)c2n1 | > 100 µM (inactive) | > 100 µM (inactive) | > 100 µM (inactive) |  | > 100 µM (inactive) | > 100 µM (inactive) | 38.7 µM (inactive) |  | > 100 µM | > 100 µM (inactive) | > 100 µM (inactive) | > 100 µM (inactive) | > 100 µM (inactive) | > 100 µM (inactive) | > 100 µM (inactive) | > 100 µM (inactive) | > 100 µM (inactive) | > 100 µM (inactive) | > 100 µM (inactive) | > 100 µM (inactive)
c1cc(-c2ccc(-c3ccc(C4=NCCCN4)cc3)o2)ccc1C1=NCCCN1 | 33.3 µM (inactive) | 2.24 µM (inactive) | 98.6 µM (inactive) | 81.3 µM (inactive) | 14.6 µM (inactive) | 35.4 µM (inactive) | 32 µM (inactive) | > 100 µM (inactive) | 90.8 µM |  | 46 µM (inactive) | 4.18 µM (inactive) | 40.2 µM (inactive) | 43.7 µM (inactive) | > 100 µM (inactive) | 53.5 µM (inactive) | 92.9 µM (inactive) | 25.1 µM (inactive) | 89.3 µM (inactive) | 49.4 µM (inactive)
O=S(=O)(O)c1ccc(/N=N/c2ccc(/N=N/c3c(O)c(S(=O)(=O)O)cc4cc(S(=O)(=O)O)ccc34)cc2)cc1 | > 100 µM (inactive) |  | > 100 µM (inactive) | > 100 µM (inactive) | > 100 µM (inactive) | > 100 µM (inactive) | > 100 µM (inactive) | > 100 µM (inactive) | > 100 µM | > 100 µM (inactive) | > 100 µM (inactive) | > 100 µM (inactive) | > 100 µM (inactive) | > 100 µM (inactive) | > 100 µM (inactive) | > 100 µM (inactive) | > 100 µM (inactive) | > 100 µM (inactive) | > 100 µM (inactive) | > 100 µM (inactive)
Cc1ccc(Cc2n[nH]c(=O)n2N2C(=O)c3ccccc3C2=O)cc1 | > 100 µM (inactive) | > 100 µM (inactive) | > 100 µM (inactive) |  | > 100 µM (inactive) | > 100 µM (inactive) | > 100 µM (inactive) | > 100 µM (inactive) | > 100 µM | > 100 µM (inactive) | > 100 µM (inactive) | > 100 µM (inactive) | > 100 µM (inactive) | > 100 µM (inactive) | > 100 µM (inactive) | > 100 µM (inactive) | > 100 µM (inactive) | > 100 µM (inactive) | > 100 µM (inactive) | > 100 µM (inactive)
Cc1ccc(Cc2nnc(S)[nH]2)cc1 | > 100 µM (inactive) | > 100 µM (inactive) | 47.2 µM (inactive) |  | 78.2 µM (inactive) | > 100 µM (inactive) | > 100 µM (inactive) | 79.8 µM (inactive) | > 100 µM | 50.8 µM (inactive) | 81.3 µM (inactive) | > 100 µM (inactive) | > 100 µM (inactive) | 79.1 µM (inactive) | > 100 µM (inactive) | > 100 µM (inactive) | > 100 µM (inactive) | > 100 µM (inactive) | 70.8 µM (inactive) | > 100 µM (inactive)
CCCCC(=O)c1ccc2ccccc2c1O | > 100 µM (inactive) | > 100 µM (inactive) | > 100 µM (inactive) |  | > 100 µM (inactive) | > 100 µM (inactive) | > 100 µM (inactive) | > 100 µM (inactive) | > 100 µM | > 100 µM (inactive) | > 100 µM (inactive) |  | 62.1 µM (inactive) | > 100 µM (inactive) |  | > 100 µM (inactive) | > 100 µM (inactive) | > 100 µM (inactive) | > 100 µM (inactive) | 
Clc1ccc2oc(CCC3CCCCC3)nc2c1 | 19.3 µM (inactive) | 37.8 µM (inactive) | 91.2 µM (inactive) | 21.9 µM (inactive) | 24.9 µM (inactive) | 26.8 µM (inactive) | 35.2 µM (inactive) | 17.9 µM (inactive) | 24.7 µM |  | 29.9 µM (inactive) | 21.9 µM (inactive) | 26.7 µM (inactive) | 26.4 µM (inactive) | 33.3 µM (inactive) | 32 µM (inactive) | 22.9 µM (inactive) | 33.3 µM (inactive) | 34.3 µM (inactive) | 39.5 µM (inactive)
Clc1ccc(/N=C2\c3ccccc3CN2c2ccc(Cl)cc2)cc1 | > 100 µM (inactive) | > 100 µM (inactive) | > 100 µM (inactive) | 63.2 µM (inactive) | 62.8 µM (inactive) | > 100 µM (inactive) | 39.9 µM (inactive) | > 100 µM (inactive) | > 100 µM | 39.8 µM (inactive) | 89.5 µM (inactive) | > 100 µM (inactive) | > 100 µM (inactive) | 77.8 µM (inactive) | > 100 µM (inactive) | 31.7 µM (inactive) | 28.4 µM (inactive) | 64 µM (inactive) | 11.6 µM (inactive) | 
COc1cc(OC)cc(C(=O)CC(=O)c2cc(OC)cc(OC)c2)c1 | > 100 µM (inactive) | > 100 µM (inactive) | > 100 µM (inactive) |  | 56.9 µM (inactive) | > 100 µM (inactive) | > 100 µM (inactive) | > 100 µM (inactive) | 68.9 µM | > 100 µM (inactive) | > 100 µM (inactive) | > 100 µM (inactive) | > 100 µM (inactive) | > 100 µM (inactive) | > 100 µM (inactive) | > 100 µM (inactive) | > 100 µM (inactive) | > 100 µM (inactive) | > 100 µM (inactive) | > 100 µM (inactive)
N#Cc1c(-c2ccccc2)nc(-c2ccccc2)sc1=S | > 100 µM (inactive) | > 100 µM (inactive) | > 100 µM (inactive) |  | > 100 µM (inactive) | > 100 µM (inactive) | > 100 µM (inactive) | > 100 µM (inactive) | > 100 µM | > 100 µM (inactive) | > 100 µM (inactive) | > 100 µM (inactive) | > 100 µM (inactive) | > 100 µM (inactive) | > 100 µM (inactive) | > 100 µM (inactive) | > 100 µM (inactive) | > 100 µM (inactive) | > 100 µM (inactive) | > 100 µM (inactive)
COc1ccc(C(SCCO)(c2ccccc2)c2ccccc2)cc1 | 13.1 µM (inactive) | 17.2 µM (inactive) | 22.3 µM (inactive) | 13.6 µM (inactive) | 13.3 µM (inactive) | 16.6 µM (inactive) | 11 µM (inactive) | 14.9 µM (inactive) | 11.9 µM |  | 16.9 µM (inactive) | 12.8 µM (inactive) | 12.9 µM (inactive) | 14.1 µM (inactive) | 16.9 µM (inactive) | 7.08 µM (inactive) | 16.4 µM (inactive) | 17.1 µM (inactive) | 13.6 µM (inactive) | 18.9 µM (inactive)
